Source: patent US7897593B2, “HIV integrase inhibitors” (priority 2006, dated 2011)
Read-outs that look alike come from different tables or passages of the source.

Legend:
purified integrase = target: T1, purified integrase (Human immunodeficiency virus type 1 group M subtype B, UniProt P12497); assay: HIV-Integrase binding assay (competition with radiolabeled integrase inhibitor); conditions: competition with [3H]-labeled integrase inhibitor; Cheng and Prusoff
T1 construct: Recombinant integrase (0.26 ng) was incubated with the beads
Procedure: HIV-Integrase binding assay. In this assay competitive binding experiments with test compounds and a radiolabeled integrase inhibitor (compound A) are performed against purified integrase. […] Binding reactions were carried out in 96-well white polystyrene assay plates (Corning, #3600). The following was added sequentially to each well: 20 μl of water or 20μl of human serum (Cellgro Cat# 35-060-CL), 5 μl of serially diluted compound (in 50% DMSO/50% integrase SPA buffer), 5 μl of [^3H]-compound I (6,000 cpm/μl in SPA buffer) and 20 μl of bead/DNA/enzyme complex. The plates were shaken for 2 hours and then allowed to sit at room temperature without shaking overnight. The [^3H]-compound I binding was measured using a Topcount scintillation counter. Cheng and Prusoff equations were used to convert the inhibition of compound 1 binding into the corresponding Ki value. Activity equal to A refers to a compound having Ki=0.001 to 0.003 μM while B and C denote compounds having Ki=0.003 to 0.05 μM and Ki≧0.050 μM respectively.

[1] = test system: recombinant NL-Rluc virus; assay: Inhibition of HIV replication; format: cell-based; conditions: three serum conditions described, the one tabulated is not stated
[2] = Human immunodeficiency virus 1, read-out: Antiviral Activity, NL-RLuc virus
[3] = read-out: Antiviral Activity, NL-RLuc virus

Row | SMILES | Ki (purified integrase) [nM] | EC50 [1, 2] [nM] | EC50 [1, 3] [nM]
1 | Cc1ncnn1-c1cc(F)ccc1CNC(=O)c1nc2n(c(=O)c1O)CCOCC21CCN(C(=O)N(C)C)CC1 [Example 71] | 3 to 50 | 10 to 100 | –
2 | Cc1ncnn1-c1cc(F)ccc1CNC(=O)c1nc2n(c(=O)c1O)CCCOC21CCN(C(=O)N(C)C)CC1 [Example 65] | 3 to 50 | 1 to 10 | –
3 | Cc1ncnn1-c1cc(F)ccc1CNC(=O)c1nc2n(c(=O)c1O)CCCOC21CCN(S(=O)(=O)N(C)C)CC1 [Example 66] | 3 to 50 | 1 to 10 | –
4 | Cc1nnc(C(=O)N2CCC3(C2)OCCn2c3nc(C(=O)NCc3ccc(F)cc3-n3ncnc3C)c(O)c2=O)o1 (centres unmarked) [Example 46, N-(4-Fluoro-2-(5-methyl-1H-1,2,4-triazol-1-yl)benzyl)-3-hydroxy-1′-(5-methyl-1,3,4-oxadiazole-2-carbonyl)-4-oxo-6,7-dihydro-4H-spiro[pyrimido[2,1-c][1,4]oxazine-9,3′-pyrrolidine]-2-carboxamide] | 3 to 50 | > 100 | –
5 | CN(C)S(=O)(=O)N1CCC2(CC1)COCCn1c2nc(C(=O)NCc2ccc(F)cc2)c(O)c1=O [Example 68] | 3 to 50 | 10 to 100 | –
6 | CC(=O)N1CCC2(CC1)OCCCn1c2nc(C(=O)NCc2ccc(F)cc2)c(O)c1=O [Example 57, 1-Acetyl-N-(4-fluorobenzyl)-3′-hydroxy-4′-oxo-4′,6′,7′,8′-tetrahydrospiro-[piperidine-4,10′-pyrimido[2,1-c][1,4]oxazepine]-2′-carboxamide] | 1 to 3 | 1 to 10 | –
7 | CN(C)C(=O)N1CCC2(CC1)OCCCn1c2nc(C(=O)NCc2ccc(F)cc2)c(O)c1=O [Example 59] | 1 to 3 | 1 to 10 | –
8 | Cc1nnc(C(=O)N2CCC3(C2)OCCn2c3nc(C(=O)NCc3ccc(F)cc3)c(O)c2=O)o1 (centres unmarked) [Example 44, N-(4-Fluorobenzyl)-3-hydroxy-1′-(5-methyl-1,3,4-oxadiazole-2-carbonyl)-4-oxo-6,7-dihydro-4H-spiro[pyrimido[2,1-c][1,4]oxazine-9,3′-pyrrolidine]-2-carboxamide] | 1 to 3 | 10 to 100 | –
9 | Cc1ncnn1-c1cc(F)ccc1CNC(=O)c1nc2n(c(=O)c1O)CCCOC21CCN(C(=O)C(=O)N(C)C)CC1 [Example 74, 1-(2-(Dimethylamino)-2-oxoacetyl)-N-(4-fluoro-2-(5-methyl-1H-1,2,4-triazol-1-yl)benzyl)-3′-hydroxy-4′-oxo-4′,6′,7′,8′-tetrahydrospiro[piperidine-4,10′-pyrimido[2,1-c][1,4]oxazepine]-2′-carboxamide] | 3 to 50 | > 100 | –
10 | Cc1nnc(C(=O)N2CCC3(CC2)OCCCn2c3nc(C(=O)NCc3ccc(F)cc3-n3ncnc3C)c(O)c2=O)o1 [Example 67] | 3 to 50 | 10 to 100 | –
11 | CN(C)S(=O)(=O)N1CCC2(CC1)OCCCn1c2nc(C(=O)NCc2ccc(F)cc2)c(O)c1=O [Example 61] | 1 to 3 | 1 to 10 | –
12 | Cc1nnc(C(=O)N2CCC3(CC2)NCCn2c3nc(C(=O)NCc3ccc(F)cc3)c(O)c2=O)o1 [Example 35, N-(4-Fluorobenzyl)-3′-hydroxy-1-(5-methyl-1,3,4-oxadiazole-2-carbonyl)-4′-oxo-4′,6′,7′,8′-tetrahydrospiro[piperidine-4,9′-pyrazino[1,2-a]pyrimidine]-2′-carboxamide] | 3 to 50 | 10 to 100 | –
13 | COC(=O)N1CCC2(CC1)OCCCn1c2nc(C(=O)NCc2ccc(F)cc2-n2ncnc2C)c(O)c1=O [Example 64] | 3 to 50 | 1 to 10 | –
14 | CCOC(=O)C(=O)N1CCC2(C1)OCCn1c2nc(C(=O)NCc2ccc(F)cc2-n2ncnc2C)c(O)c1=O (centres unmarked) [Example 47, Ethyl 2-(2-(4-fluoro-2-(5-methyl-1H-1,2,4-triazol-1-yl)benzylcarbamoyl)-3-hydroxy-4-oxo-6,7-dihydro-4H-spiro[pyrimido[2,1-c][1,4]oxazine-9,3′-pyrrolidine]-1′-yl)-2-oxoacetate] | 3 to 50 | > 100 | –
15 | CCOC(=O)C(=O)N1CCC2(C1)OCCn1c2nc(C(=O)NCc2ccc(F)cc2)c(O)c1=O (centres unmarked) [Example 45, Ethyl 2-(2-(4-fluorobenzylcarbamoyl)-3-hydroxy-4-oxo-6,7-dihydro-4H-spiro[pyrimido[2,1-c][1,4]oxazine-9,3′-pyrrolidine]-1′-yl)-2-oxoacetate] | 1 to 3 | 10 to 100 | –
16 | CN(C)C(=O)C(=O)N1CCC2(CC1)NCCn1c2nc(C(=O)NCc2ccc(F)cc2)c(O)c1=O [Example 34, 1-(2-(Dimethylamino)-2-oxoacetyl)-N-(4-fluorobenzyl)-3′-hydroxy-4′-oxo-4′,6′,7′,8′-tetrahydrospiro[piperidine-4,9′-pyrazino[1,2-a]pyrimidine]-2′-carboxamide] | 3 to 50 | 10 to 100 | –
17 | Cc1ncnn1-c1cc(F)ccc1CNC(=O)c1nc2n(c(=O)c1O)CCCOC21CCN(S(C)(=O)=O)CC1 [Example 73] | 3 to 50 | – | > 100
18 | O=C(NCc1ccc(F)cc1)c1nc2n(c(=O)c1O)CCCOC21CCN(C(=O)OCc2ccccc2)CC1 [Example 48] | 1 to 3 | 10 to 100 | –
19 | Cc1ncnn1-c1cc(F)ccc1CNC(=O)c1nc2n(c(=O)c1O)CCCOC21CCN(S(C)(=O)=O)CC1 [Example 62] | 3 to 50 | – | 10 to 100
20 | COC(=O)N1CCC2(CC1)COCCn1c2nc(C(=O)NCc2ccc(F)cc2-n2ncnc2C)c(O)c1=O [Example 72] | 3 to 50 | 10 to 100 | –
21 | COC(=O)N1CCC2(CC1)OCCCn1c2nc(C(=O)NCc2ccc(F)cc2)c(O)c1=O [Example 58, Methyl 2′-(4-fluorobenzylcarbamoyl)-3′-hydroxy-4′-oxo-4′,6′,7′,8′-tetrahydrospiro[piperidine-4,10′-pyrimido[2,1-c][1,4]oxazepine]-1-carboxylate] | 1 to 3 | 1 to 10 | –
22 | CS(=O)(=O)N1CCC2(CC1)OCCCn1c2nc(C(=O)NCc2ccc(F)cc2)c(O)c1=O [Example 60] | 1 to 3 | 1 to 10 | –
23 | Cc1ncnn1-c1cc(F)ccc1CNC(=O)c1nc2n(c(=O)c1O)CCOCC21CCN(S(=O)(=O)N(C)C)CC1 [Example 70] | 3 to 50 | 10 to 100 | –
24 | Cc1ncnn1-c1cc(F)ccc1CNC(=O)c1nc2n(c(=O)c1O)CCOCC21CCN(C(=O)OCc2ccccc2)CC1 [Example 55] | 3 to 50 | 1 to 10 | –
25 | Cc1ncnn1-c1cc(F)ccc1CNC(=O)c1nc2n(c(=O)c1O)CCCOC21CCN(C(=O)OCc2ccccc2)CC1 [Example 53] | 3 to 50 | 1 to 10 | –
26 | O=C(NCc1ccc(F)cc1N1CCCCS1(=O)=O)c1nc2n(c(=O)c1O)CCCOC21CCN(C(=O)OCc2ccccc2)CC1 [Example 51] | 3 to 50 | 1 to 10 | –
27 | CC(=O)N1CCC2(CC1)COCCn1c2nc(C(=O)NCc2ccc(F)cc2-n2ncnc2C)c(O)c1=O [Example 69] | 3 to 50 | > 100 | –
28 | CC(=O)N1CCC2(CC1)OCCCn1c2nc(C(=O)NCc2ccc(F)cc2-n2ncnc2C)c(O)c1=O [Example 63] | 3 to 50 | 10 to 100 | –
